The source of these data is PMC7134596 (Febs Letters, 2004).

In the assay the target is SARS‐CoV M^pro (Severe acute respiratory syndrome-related coronavirus, UniProt P0C6X7). Description: biochemical.

Usually Ki stands for a dissociation constant, usually derived from enzyme kinetics or from competition with a known ligand. A low value points to a stronger hold on the target.

As for `CC1=C(C(=O)OCCc2ccccc2)C(c2ccccc2[N+](=O)[O-])C2=C(CCCC2=O)N1` (stereo not shown) [MP576, 3‐quinolinecarboxylic acid, 1,4,5,6,7,8‐hexahydro‐2‐methyl‐4‐(2‐nitrophenyl)‐5‐oxo‐, 2‐phenylethyl ester], the affinity, expressed as Ki, was 2900 ± 300 nM.
